PMC7767178 (International Journal of Molecular Sciences, 2020)
Values after ≈ are worked out from the molar mass of the structure shown. Where two headings read alike, the source gives them in different places.

Columns and labels:
[1] = tested on: A. veronii X-1-06909; assay: microbe, parasite or virus in culture; format: cell-based
Source text: (§1) All experiments were repeated three times.

[2] = tested on: Candida albicans CMCC98001; assay: microbe, parasite or virus in culture; format: cell-based; conditions: CMCC98001; read-out: MIC
Source text: as §1

[3] = tested on: E. coli CVCC1515; assay: microbe, parasite or virus in culture; format: cell-based
Source text: as §1

[4] = tested on: E. coli CVCC25922; assay: microbe, parasite or virus in culture; format: cell-based; conditions: E. coli CVCC25922; broth dilution, 37 °C, 16–18 h, three experiments
Source text: as §1

[5] = tested on: Escherichia coli CVCC195; assay: microbe, parasite or virus in culture; format: cell-based; conditions: Escherichia coli CVCC195; broth dilution, 37 °C, 16–18 h, three experiments
Source text: as §1

[6] = tested on: S. enteritidis CVCC3377; assay: microbe, parasite or virus in culture; format: cell-based
Source text: as §1

[7] = tested on: S. pullorum CVCC1789; assay: microbe, parasite or virus in culture; format: cell-based
Source text: as §1

[8] = tested on: S. pullorum CVCC1809; assay: microbe, parasite or virus in culture; format: cell-based; conditions: S. pullorum CVCC1809; broth dilution, 37 °C, 16–18 h, three experiments
Source text: as §1

[9] = tested on: S. pullorum CVCC533; assay: microbe, parasite or virus in culture; format: cell-based
Source text: as §1

[10] = tested on: Staphylococcus aureus ATCC43300; assay: microbe, parasite or virus in culture; format: cell-based
Source text: as §1

[11] = tested on: E. coli CVCCO157; assay: MIC, microtiter broth dilution; format: cell-based; conditions: 37 °C, 16–18 h, three experiments
Source text: as §1

[12] = tested on: A. veronii ACCC61732; assay: Time-killing curves; format: cell-based; conditions: 2× MIC; 1 × 10^5 CFU/mL, colony counting, 0–24 h
Method: Time-killing curves were performed as previously described. […] The sample of 100 μL was taken from each flask at 0, 0.5, 1, 2, 4, 6, 8, 10, 20, and 24 h, respectively, and serially diluted for colony counting. PBS and CIP were used as the negative and positive control, respectively.

[13] = tested on: A. veronii ACCC61732; assay: Post-antibiotic effect (PAE); format: cell-based; conditions: for PAE: 2 h exposure, 1000-fold dilution, 37 °C, triplicate
Method: The samples were taken from flasks for counting each hour until bacterial cultures became turbid. The untreated bacteria severed as controls. The PAE was calculated using the following equation: PAE = T − C, where T is the time (h) required for the CFU in the test culture to increase by 10-fold from the count immediately after the drug removal and C is the corresponding time (h) for the control. The experiment was performed in triplicate.

[14] = tested on: A. veronii ACCC61732; assay: Resistance development, 30 serial passages; format: cell-based; conditions: A. veronii ACCC61732, 30 passages (30 days)
Method: The development of bacterial resistance of peptides was performed by the MIC assays. […] GEN, CIP, and PMB were used as controls. […] The MIC values were measured as described above. The serial passaging was repeated for 30 days.

[15] = tested on: A. veronii ACCC61732 genomic DNA; assay: CD spectra of genomic DNA with peptides; format: binding; conditions: mass ratios 2.5 and 10.0, 10 min, room temperature
Method: CD spectra were performed to examine the secondary structure of genomic DNA from A. veronii ACCC61732 after incubation with peptides. […] The mixtures were loaded into a cuvette of 1.0-mm path length and scanned from 190 to 330 nm at 25 °C using a Pistar π-180 CD spectrometer (Applied Photophysics Ltd., Surry, UK).

[16] = tested on: A. veronii ACCC61732 in biofilm; format: cell-based; conditions: 2 h
Method: The mid-log phase A. veronii ACCC61732 cells (1 × 10^8 CFU/mL) were inoculated into in the 96-well plates and cultured for 24 h at 37 °C. The plates were washed twice with PBS. […] PBS was used as the negative control. The plates were treated with ultrasound for 5 min and the viable bacteria were counted on the TSA plates.

[17] = tested on: trypsin; conditions: pH 8

SMILES: CC(C)[C@@H]1NC(=O)CNC(=O)[C@H](CC(N)=O)NC(=O)[C@H](CCCNC(=N)N)NC(=O)[C@H](Cc2ccc(O)cc2)NC(=O)[C@H](C(C)C)NC(=O)[C@@H](NC(=O)[C@@H](NC(=O)[C@H](CC(N)=O)NC(=O)[C@H](Cc2c[nH]c3ccccc23)NC(=O)[C@H](C)NC(=O)[C@H](Cc2ccccc2)NC(=O)[C@H](CCCN)N=C(N(C)C)N(C)C)C(C)C)CSSC[C@@H](C(=O)N[C@@H](Cc2c[nH]cn2)C(=O)N[C@@H](CCCNC(=N)N)C(=O)N[C@@H](CCCNC(=N)N)C(=O)N[C@@H](C)C(=O)N[C@@H](CC(N)=O)C(N)=O)NC(=O)[C@H](C(C)C)NC(=O)[C@H](CCCNC(=N)N)NC1=O (stereo in doubt) [Guo-N6NH2]
- MIC ([1]; A. veronii X-1-06909, broth dilution, 37 °C, 16–18 h, three experiments): 16 µg/mL
- MIC ([1]; read-out: MIC): 6.08 µM
- MIC [2]: >48.6 µM
- MIC ([3]; CVCC1515, read-out: MIC): 0.76 µM
- MIC ([3]; E. coli CVCC1515, broth dilution, 37 °C, 16–18 h, three experiments): 2 µg/mL
- MIC [4]: 4 µg/mL (≈ 1.52 µM)
- MIC [5]: 4 µg/mL (≈ 1.52 µM)
- MIC ([6]; CVCC3377, read-out: MIC): 0.76 µM
- MIC ([6]; S. enteritidis CVCC3377, broth dilution, 37 °C, 16–18 h, three experiments): 2 µg/mL
- MIC ([7]; CVCC1789, read-out: MIC): 3.04 µM
- MIC ([7]; S. pullorum CVCC1789, broth dilution, 37 °C, 16–18 h, three experiments): 8 µg/mL
- MIC [8]: 4 µg/mL (≈ 1.52 µM)
- MIC ([9]; CVCC533, read-out: MIC): 3.04 µM
- MIC ([9]; S. pullorum CVCC533, broth dilution, 37 °C, 16–18 h, three experiments): 8 µg/mL
- MIC ([10]; ATCC43300, read-out: MIC): 6.08 µM
- MIC ([10]; Staphylococcus aureus ATCC43300, broth dilution, 37 °C, 16–18 h, three experiments): 16 µg/mL
- MIC [11]: 4 µg/mL (≈ 1.52 µM)
- time to completely kill A. veronii ACCC61732 [12]: 6 h
- PAE ([13]; 1× MIC): 0.62 ± 0.01 h
- PAEs, range over 1×–4× MIC ([13]; 1× to 4× MIC): 0.62 to 2.07 h
- PAE ([13]; 2× MIC): 1.32 ± 0.08 h
- PAE ([13]; 4× MIC): 2.07 ± 0.08 h
- increase of MIC after 30 serial passages [14]: three-fold
- effect on CD spectrum of genomic DNA [15]: do not affect the double helix of genomic DNA
- bacteria in biofilm killed [16]; 8: 46.26%
- bacteria in biofilm killed [16]; 16: 54.31%
- MIC after trypsin treatment [17]: lost their activity
